Columns and labels:
C3H mice = test: Survival of mice given p38MAPK or pJNK inhibitor before FUS1-nanoparticles; format: in vivo
Procedure: The amount of FUS1 plasmid DNA delivered was 100 μg. Animals were injected intravenously with FUS1-nanoparticles and animal survival monitored for 25 days.

p44/42 MAPK = details: MRC-9 cells, 10, 30 μM prior to FUS1-nanoparticles
Procedure: In vitro experiments. To determine the effect of FUS1-nanoparticles on the activation of signaling molecules associated with inflammation, MRC-9 fibroblast cells were seeded in six-well plates (5×10^5 cells/well) and incubated overnight at 37° C. and 5% CO2. […] Two-three hours after treatment, cells were transfected with FUS1-nanoparticles (2.5 μg DNA) in 0.2% serum medium. Cells were harvested at different time-points (2 h, 4 h, 15 h) after transfection, washed, and cell lysates prepared as previously described (Ramesh et al., 2001a). Untransfected cells treated with PBS served as control in these experiments. Cell lysates were subjected to western blotting analysis and probed with various antibodies as previously described (Ramesh et al., 2001b; Ito et al., 2003). In all the experiments, β-actin was detected using anti-β-actin antibody (Sigma Chemicals, St. Louis, Mo.) as a measure of internal loading control.

[1] = inhibitor 15 mg/kg intraperitoneally 24 h and 3 h prior to FUS1-nanoparticles (100 μg DNA) i.v., monitored 25 days

Compound | survival (C3H mice; [1]) [%] | p44/42 MAPK expression and downstream substrates (p44/42 MAPK) | survival (C3H mice; two i.p. doses at 24 h and 3 h before complex)
O=C1c2ccccc2-c2n[nH]c3cccc1c23 [pJNK inhibitor] | 33 | – | –
N#CC(=C(/N)Sc1ccccc1N)/C(C#N)=C(\N)Sc1ccccc1N [U0126] | – | significant inhibition | –
C[S+]([O-])c1ccc(-c2nc(-c3ccncc3)c(-c3ccc(F)cc3)[nH]2)cc1 (stereo not shown) [SB 203580] | 100 | – | Prolonged survival

Reference: patent publication US20050143336A1 (priority 2003, published 2005)
